Measurements reported in the kinase profiling compilation of Christmann-Franck et al. (2016).

Key:
Assay in all cases: KINOMEscan competition binding
Conditions in all cases: compound 10.0 µM
[1] = system: ABL1 (human), P00519 [T315I]
MAPK11 (human) = MAPK11 (human) (UniProt Q15759)
PRKD2 (human) = PRKD2 (human) (UniProt Q9BZL6)
[2] = system: RET (human), P07949 [M918T]
RPS6KA5 KD1 (human) = RPS6KA5 KD1 (human) (UniProt O75582)
MAPK14 (human) = MAPK14 (human) (UniProt Q16539)
CAMK4 (human) = CAMK4 (human) (UniProt Q16566)
CDK9 (human) = CDK9 (human) (UniProt P50750)
TEK (human) = TEK (human) (UniProt Q02763)
Chain of TEK (human) (Q02763 whole entry, looked up): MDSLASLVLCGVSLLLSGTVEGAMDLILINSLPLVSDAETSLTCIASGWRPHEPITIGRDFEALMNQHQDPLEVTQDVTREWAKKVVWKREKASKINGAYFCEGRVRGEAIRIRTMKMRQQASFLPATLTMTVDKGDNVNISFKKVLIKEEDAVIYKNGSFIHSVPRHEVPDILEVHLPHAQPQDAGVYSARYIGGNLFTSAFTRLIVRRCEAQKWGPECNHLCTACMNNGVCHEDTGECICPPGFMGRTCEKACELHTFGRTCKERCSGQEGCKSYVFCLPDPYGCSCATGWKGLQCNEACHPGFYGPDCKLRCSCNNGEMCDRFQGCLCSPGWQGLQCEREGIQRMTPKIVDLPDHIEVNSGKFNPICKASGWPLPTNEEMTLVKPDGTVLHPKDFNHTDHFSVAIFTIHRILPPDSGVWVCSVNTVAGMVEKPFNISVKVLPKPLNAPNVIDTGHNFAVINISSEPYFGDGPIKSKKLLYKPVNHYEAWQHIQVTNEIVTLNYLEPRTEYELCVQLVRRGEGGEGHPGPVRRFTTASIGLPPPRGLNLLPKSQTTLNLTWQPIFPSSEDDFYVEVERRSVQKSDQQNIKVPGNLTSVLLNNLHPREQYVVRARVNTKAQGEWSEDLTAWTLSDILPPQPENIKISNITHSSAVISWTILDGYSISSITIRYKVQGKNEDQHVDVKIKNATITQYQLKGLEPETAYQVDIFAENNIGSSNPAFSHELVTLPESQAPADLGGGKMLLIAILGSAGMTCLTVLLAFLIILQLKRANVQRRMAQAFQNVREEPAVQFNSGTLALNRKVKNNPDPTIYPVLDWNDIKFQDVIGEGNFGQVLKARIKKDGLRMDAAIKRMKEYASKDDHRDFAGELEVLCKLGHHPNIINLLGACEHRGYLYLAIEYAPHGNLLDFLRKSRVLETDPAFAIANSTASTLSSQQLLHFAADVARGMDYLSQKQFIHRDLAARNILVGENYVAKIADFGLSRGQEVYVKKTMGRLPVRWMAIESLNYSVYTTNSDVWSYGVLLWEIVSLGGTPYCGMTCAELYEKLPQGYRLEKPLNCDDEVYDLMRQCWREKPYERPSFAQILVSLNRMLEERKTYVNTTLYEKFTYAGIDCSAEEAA

PDPK1 (human) = PDPK1 (human) (UniProt O15530)
BTK (human) = BTK (human) (UniProt Q06187)
ADCK3 (human) = ADCK3 (human) (UniProt Q8NI60)
PRKCQ (human) = PRKCQ (human) (UniProt Q04759)
MAP2K6 (human) = MAP2K6 (human) (UniProt P52564)
IRAK3 (human) = IRAK3 (human) (UniProt Q9Y616)
[3] = target: JAK2 JH1 catalytic (human) (UniProt O60674)
RET (human) = RET (human) (UniProt P07949)
AURKA (human) = AURKA (human) (UniProt O14965)
TEC (human) = TEC (human) (UniProt P42680)
Chain of TEC (human) (P42680 whole entry, looked up): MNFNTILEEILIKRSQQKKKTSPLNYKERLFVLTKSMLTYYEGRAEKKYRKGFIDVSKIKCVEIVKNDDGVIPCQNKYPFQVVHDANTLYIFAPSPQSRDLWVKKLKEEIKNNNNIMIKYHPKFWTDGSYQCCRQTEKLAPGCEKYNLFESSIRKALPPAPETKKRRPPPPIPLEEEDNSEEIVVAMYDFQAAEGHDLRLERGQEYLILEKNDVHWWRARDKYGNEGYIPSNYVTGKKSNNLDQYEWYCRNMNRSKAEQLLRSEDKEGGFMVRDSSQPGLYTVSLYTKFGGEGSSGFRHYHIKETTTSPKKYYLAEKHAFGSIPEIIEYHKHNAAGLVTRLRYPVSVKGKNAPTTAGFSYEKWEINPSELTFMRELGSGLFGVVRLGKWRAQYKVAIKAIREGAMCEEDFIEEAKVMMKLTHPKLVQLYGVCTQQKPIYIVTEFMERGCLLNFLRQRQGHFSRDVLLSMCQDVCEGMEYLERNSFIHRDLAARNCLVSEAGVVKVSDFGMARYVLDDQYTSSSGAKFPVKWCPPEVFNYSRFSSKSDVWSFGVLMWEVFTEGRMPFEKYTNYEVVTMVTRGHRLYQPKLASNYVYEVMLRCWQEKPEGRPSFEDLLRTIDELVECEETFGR

EPHA4 (human) = EPHA4 (human) (UniProt P54764)
PKN2 (human) = PKN2 (human) (UniProt Q16513)
STK32B (human) = STK32B (human) (UniProt Q9NY57)
CHEK1 (human) = CHEK1 (human) (UniProt O14757)
Chain of CHEK1 (human) (O14757 whole entry, looked up): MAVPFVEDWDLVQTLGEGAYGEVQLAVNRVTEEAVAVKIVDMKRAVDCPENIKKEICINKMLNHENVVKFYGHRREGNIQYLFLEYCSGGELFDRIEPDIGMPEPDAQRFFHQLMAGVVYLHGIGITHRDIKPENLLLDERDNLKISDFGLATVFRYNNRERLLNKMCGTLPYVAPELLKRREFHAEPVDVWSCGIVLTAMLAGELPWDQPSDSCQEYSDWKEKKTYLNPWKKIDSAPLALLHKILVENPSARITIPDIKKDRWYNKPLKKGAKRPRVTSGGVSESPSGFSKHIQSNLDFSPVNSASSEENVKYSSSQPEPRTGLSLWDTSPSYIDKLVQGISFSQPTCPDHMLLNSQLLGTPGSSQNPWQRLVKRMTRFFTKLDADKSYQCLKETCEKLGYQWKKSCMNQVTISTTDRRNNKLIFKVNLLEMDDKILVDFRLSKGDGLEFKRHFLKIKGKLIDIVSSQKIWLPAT

[4] = system: ABL1 (human), P00519 [H396P]
PDGFRA (human) = PDGFRA (human) (UniProt P16234)
TXK (human) = TXK (human) (UniProt P42681)
Chain of TXK (human) (P42681 whole entry, looked up): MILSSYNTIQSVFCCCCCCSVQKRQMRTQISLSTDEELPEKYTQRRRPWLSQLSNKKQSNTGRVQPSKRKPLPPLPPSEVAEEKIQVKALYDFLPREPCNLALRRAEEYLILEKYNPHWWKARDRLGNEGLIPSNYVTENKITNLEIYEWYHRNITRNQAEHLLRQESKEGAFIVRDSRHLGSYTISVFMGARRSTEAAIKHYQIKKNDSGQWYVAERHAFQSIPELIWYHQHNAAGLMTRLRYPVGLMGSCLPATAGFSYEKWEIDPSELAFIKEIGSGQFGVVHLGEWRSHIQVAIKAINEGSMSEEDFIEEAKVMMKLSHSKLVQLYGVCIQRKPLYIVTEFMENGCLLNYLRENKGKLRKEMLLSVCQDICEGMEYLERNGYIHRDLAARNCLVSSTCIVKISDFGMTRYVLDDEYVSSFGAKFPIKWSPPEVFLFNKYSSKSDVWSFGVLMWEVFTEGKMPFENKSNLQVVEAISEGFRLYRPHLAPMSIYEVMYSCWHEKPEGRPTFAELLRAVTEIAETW

CDK15 (human) = CDK15 (human) (UniProt Q96Q40)
Chain of CDK15 (human) (Q96Q40 whole entry, looked up): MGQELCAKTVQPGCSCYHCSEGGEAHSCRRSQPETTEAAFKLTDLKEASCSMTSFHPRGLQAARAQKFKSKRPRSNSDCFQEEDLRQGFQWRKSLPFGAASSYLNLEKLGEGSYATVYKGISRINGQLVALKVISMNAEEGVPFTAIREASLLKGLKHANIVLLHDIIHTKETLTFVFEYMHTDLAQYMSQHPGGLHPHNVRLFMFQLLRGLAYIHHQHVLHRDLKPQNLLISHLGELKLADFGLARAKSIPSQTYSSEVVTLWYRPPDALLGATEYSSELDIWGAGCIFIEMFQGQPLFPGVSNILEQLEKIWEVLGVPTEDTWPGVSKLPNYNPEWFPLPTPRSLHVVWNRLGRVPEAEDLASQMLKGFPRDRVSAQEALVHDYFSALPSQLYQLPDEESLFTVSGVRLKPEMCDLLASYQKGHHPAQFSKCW

STK3 (human) = STK3 (human) (UniProt Q13188)
SLK (human) = SLK (human) (UniProt Q9H2G2)
CDC2L2 (human) = CDC2L2 (human) (UniProt Q9UQ88)
DCLK2 (human) = DCLK2 (human) (UniProt Q8N568)
MST4 (human) = MST4 (human) (UniProt Q9P289)
STK32C (human) = STK32C (human) (UniProt Q86UX6)
MAP3K11 (human) = MAP3K11 (human) (UniProt Q16584)
GSK3B (human) = GSK3B (human) (UniProt P49841)
[5] = system: ABL1 (human), P00519 [F317I]
NEK9 (human) = NEK9 (human) (UniProt Q8TD19)
Chain of NEK9 (human) (Q8TD19 whole entry, looked up): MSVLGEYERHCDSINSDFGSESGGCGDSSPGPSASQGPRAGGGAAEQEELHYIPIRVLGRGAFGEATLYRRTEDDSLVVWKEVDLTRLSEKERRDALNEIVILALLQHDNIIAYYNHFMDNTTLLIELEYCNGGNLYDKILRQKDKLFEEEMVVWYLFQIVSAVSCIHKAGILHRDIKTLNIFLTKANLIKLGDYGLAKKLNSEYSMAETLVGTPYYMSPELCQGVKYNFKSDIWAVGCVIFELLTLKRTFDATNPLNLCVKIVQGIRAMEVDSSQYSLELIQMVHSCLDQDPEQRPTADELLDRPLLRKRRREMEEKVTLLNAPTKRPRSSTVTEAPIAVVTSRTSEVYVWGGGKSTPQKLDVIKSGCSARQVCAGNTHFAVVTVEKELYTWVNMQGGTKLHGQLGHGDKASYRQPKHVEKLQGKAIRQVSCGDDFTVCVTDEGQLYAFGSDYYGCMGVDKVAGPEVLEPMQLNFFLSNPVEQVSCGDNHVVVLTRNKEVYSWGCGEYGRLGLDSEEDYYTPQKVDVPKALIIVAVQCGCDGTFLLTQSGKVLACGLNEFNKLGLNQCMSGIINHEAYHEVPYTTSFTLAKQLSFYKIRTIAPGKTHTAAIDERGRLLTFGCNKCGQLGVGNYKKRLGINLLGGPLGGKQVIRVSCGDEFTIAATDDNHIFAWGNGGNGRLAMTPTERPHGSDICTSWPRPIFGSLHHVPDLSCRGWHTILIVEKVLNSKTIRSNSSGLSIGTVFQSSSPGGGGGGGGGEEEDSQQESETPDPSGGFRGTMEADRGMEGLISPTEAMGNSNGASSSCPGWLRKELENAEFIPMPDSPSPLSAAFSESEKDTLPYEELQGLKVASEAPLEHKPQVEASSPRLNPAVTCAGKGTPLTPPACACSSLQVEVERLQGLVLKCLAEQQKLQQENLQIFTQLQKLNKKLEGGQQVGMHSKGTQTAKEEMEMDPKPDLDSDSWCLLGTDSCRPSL

EPHA2 (human) = EPHA2 (human) (UniProt P29317)
LIMK2 (human) = LIMK2 (human) (UniProt P53671)
PIK3CA (human) = PIK3CA (human) (UniProt P42336)
MAP2K1 (human) = MAP2K1 (human) (UniProt Q02750)
SYK (human) = SYK (human) (UniProt P43405)

Chain of MAPK14 (human) (Q16539 whole entry, looked up): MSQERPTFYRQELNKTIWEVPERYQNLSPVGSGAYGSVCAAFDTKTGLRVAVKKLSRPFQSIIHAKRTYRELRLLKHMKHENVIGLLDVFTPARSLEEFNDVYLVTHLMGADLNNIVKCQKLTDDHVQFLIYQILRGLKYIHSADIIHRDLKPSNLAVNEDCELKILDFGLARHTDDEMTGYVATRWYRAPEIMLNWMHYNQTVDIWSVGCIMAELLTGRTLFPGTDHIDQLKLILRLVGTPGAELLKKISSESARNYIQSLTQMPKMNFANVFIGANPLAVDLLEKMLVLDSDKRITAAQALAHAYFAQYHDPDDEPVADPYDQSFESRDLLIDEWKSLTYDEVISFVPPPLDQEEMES
Chain of MAPK11 (human) (Q15759 whole entry, looked up): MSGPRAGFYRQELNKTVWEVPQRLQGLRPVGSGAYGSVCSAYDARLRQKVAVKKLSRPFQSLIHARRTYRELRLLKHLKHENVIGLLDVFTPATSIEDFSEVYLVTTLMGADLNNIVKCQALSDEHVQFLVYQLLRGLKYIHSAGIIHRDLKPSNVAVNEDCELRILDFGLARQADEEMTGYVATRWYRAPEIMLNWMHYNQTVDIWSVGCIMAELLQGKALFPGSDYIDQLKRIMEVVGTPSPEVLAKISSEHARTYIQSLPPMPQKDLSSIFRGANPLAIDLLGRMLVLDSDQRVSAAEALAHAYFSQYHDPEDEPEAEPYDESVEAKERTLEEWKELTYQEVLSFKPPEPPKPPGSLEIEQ

## CN1C(=O)c2ccccc2N(C)c2nc(NS(=O)(=O)c3ccc(N)cc3)ncc21
[1]
  kinase still bound, per cent of control: 97%
MAPK11 (human)
  kinase still bound, per cent of control: 100%
PRKD2 (human)
  kinase still bound, per cent of control: 100%
[2]
  kinase still bound, per cent of control: 100%
RPS6KA5 KD1 (human)
  kinase still bound, per cent of control: 99%
MAPK14 (human)
  kinase still bound, per cent of control: 100%
CAMK4 (human)
  kinase still bound, per cent of control: 100%
CDK9 (human)
  kinase still bound, per cent of control: 100%
TEK (human)
  kinase still bound, per cent of control: 97%
PDPK1 (human)
  kinase still bound, per cent of control: 100%
BTK (human)
  kinase still bound, per cent of control: 100%
ADCK3 (human)
  kinase still bound, per cent of control: 99%
PRKCQ (human)
  kinase still bound, per cent of control: 100%
MAP2K6 (human)
  kinase still bound, per cent of control: 100%
IRAK3 (human)
  kinase still bound, per cent of control: 100%
[3]
  kinase still bound, per cent of control: 42%
RET (human)
  kinase still bound, per cent of control: 100%
AURKA (human)
  kinase still bound, per cent of control: 100%
TEC (human)
  kinase still bound, per cent of control: 100%
EPHA4 (human)
  kinase still bound, per cent of control: 100%
PKN2 (human)
  kinase still bound, per cent of control: 70%
STK32B (human)
  kinase still bound, per cent of control: 100%
CHEK1 (human)
  kinase still bound, per cent of control: 98%
[4]
  kinase still bound, per cent of control: 100%
PDGFRA (human)
  kinase still bound, per cent of control: 100%
TXK (human)
  kinase still bound, per cent of control: 96%
CDK15 (human)
  kinase still bound, per cent of control: 100%
STK3 (human)
  kinase still bound, per cent of control: 87%
SLK (human)
  kinase still bound, per cent of control: 100%
CDC2L2 (human)
  kinase still bound, per cent of control: 100%
DCLK2 (human)
  kinase still bound, per cent of control: 70%
MST4 (human)
  kinase still bound, per cent of control: 100%
STK32C (human)
  kinase still bound, per cent of control: 100%
MAP3K11 (human)
  kinase still bound, per cent of control: 100%
GSK3B (human)
  kinase still bound, per cent of control: 94%
[5]
  kinase still bound, per cent of control: 100%
NEK9 (human)
  kinase still bound, per cent of control: 100%
EPHA2 (human)
  kinase still bound, per cent of control: 100%
LIMK2 (human)
  kinase still bound, per cent of control: 100%
PIK3CA (human)
  kinase still bound, per cent of control: 100%
MAP2K1 (human)
  kinase still bound, per cent of control: 100%
SYK (human)
  kinase still bound, per cent of control: 100%
